Assay results taken from patent US20120035187A1 (priority 2009, published 2012).

Key:
[1] = system: PC12-HS cells; assay: Evaluation A: neurocyte (cell)-growth-promoting action, ALAMAR BLUE; format: cell-based, rat
[2] = system: ICR mice administered with amyloid β fragment; assay: Degeneration or defect of hippocampal pyramidal cells, mouse administered with amyloid β fragment, agents of Example 1; format: in vivo; settings: 4-point grade score none (0) to severe (3), average of 10 mice; agent of Example 1, 0.3 ml/head intraperitoneally once a day up to the 8th day
Method: One hundred and thirty ICR mice (commercialized by Charles Liver Laboratories Japan Inc., Kanagawa, Japan) were randomly divided into 13 groups, consisting of 10 mice in each group. Amyloid β fragment, represented by an amino acid sequence of SEQ ID NO: 1, used in Experiment 3 was aged at 37° C. for four days, and administered to the lateral ventricle of each mouse in an amount of 9 nmol/6 μl/mouse (the administration method is referred to “Brain Research”, Vol. 706, pp. 181-193 (1996)). […] The mice (10 heads) in the remaining one group were intraperitoneally administered with a sterilized 10% maltose solution (pyrogen-free) once a day up to the 8th day in an amount of 0.3 ml/mouse (control). On the 8th day after the administration, novel object recognition test (see, Japanese Patent Kokai No. 2008-193941) was performed and the average discrimination index (the ratio of prolonged seeking time for novel object to the total seeking time) as a cognitive function index were shown in Table 26. On the 9th day after the administration, the brain of the mice was anatomically isolated, prepared into tissue samples in conventional manner. Depositions of aggregation of amyloid fragment were observed by staining with Congo red or thioflavin T, and degeneration or defect of hippocampal pyramidal cells concerned with cognitive function. The degeneration or the defect of hippocampal pyramidal cells was evaluated by 4-point grade score, by regarding the condition of the control without administration of amyloid β fragment as “none (O)”, “slight (1)”, “moderate (2)”, and “sever (3)”, and the average scores of 10 mice are shown in Table 20.

[3] = system: hamsters with cerebellar ataxia; assay: Falling down frequency of hamsters with cerebellar ataxia; format: in vivo, hamster; settings: hamster with cerebellar ataxia; agent of Example 1, 0.5 ml/hamster intraperitoneally once a day for 56 days
Description: (§1) Since NK-4 was confirmed to have a neurodegenerative inhibitory action in Experiment 1, hamsters with cerebellar ataxia (cerebellar ataxia is called “cerebellar A” and hamsters with cerebellar ataxia are called “hamsters with cerebellar A”, hereinafter) as a suitable model for human neurodegenerative diseases (e.g., spinal cerebellar degeneration) were subjected to examine the influence of NK-4 administration on their behaviors and brain tissues. Twenty-five hamsters with natural mutation (Nna1 inhibition), which are known to lose Purkinje's cells after three-weeks of age and then induce a spontaneous onset of kinetic motor ataxia after seven-weeks of age (see Akita K. et al., “J. Neurogenetics”, Vol. 21, pp. 19-29, 2007), had been fed at Hayashibara Biochemical Laboratories., Inc., Okayama, Japan, were randomly allocated to the test groups 1 to 5, five heads in each group, as shown in Table 2. Prior to the onset of cerebellar A (at three-weeks of age), PBS was started to administer to the hamsters in the test group 1 at a dose of 10 ml/kg/day. Prior to the onset of cerebellar A (at three-weeks of age), NK-4 was started to be administered to the hamsters in the test groups 2 to 4 at a daily dose of 20 μg/kg, 100 μg/kg or 500 μg/kg. “IGF-1, human, a product name of insulin-like growth factor, commercialized by Assaypro LLC, MO, USA. These administered ingredients were intraperitoneally administered daily to hamsters once a day up to 10-weeks of age. The degree of symptom of cerebellar A and the improvement effect on the symptom by NK-4 were evaluated with an index of improvement in motor coordination of hamsters by conducting once a week the later described rotarod test and the slant tolerance test. At the age of 10-weeks, the hamsters were subjected to counting the falling down frequency and extracted their brains, which were then histologically evaluated. In parallel, the concentration of glutamic acid in the bloods and cerebrospinal fluids (CSF) of the hamsters was assayed. As a test group 6, five normal hamsters, with the same age as the hamsters with cerebellar A used in the test groups 1 to 5, were provided and tested similarly as the hamsters with cerebellar A in such a manner of intraperitoneally administering PBS to them at a dose of 10 ml/kg/day once a day up to 10-weeks of age.
Hamsters, 10-weeks of age, were respectively housed in a breeding cage. Their falling down frequencies within one minute were counted under a macroscopic observation and the data from five heads in each group were averaged. For reference, the hamsters with cerebellar A used in this experiment are known to increase their falling down frequencies after nine weeks of age.
(§2) Similarly as in Experiment 2, 130 hamsters with cerebellar ataxia, born within the same week and 3-weeks of age, were randomly divided into 13 groups, consisting of 10 hamsters, respectively. […] The hamsters (10 heads) in the remaining one group were intraperitoneally administered from their age of 3- to 10-weeks with a sterilized 10% maltose solution (pyrogen-free) in an amount of 0.5 ml/hamster (control) once a day for 56 days At the next day after the end of the administration, body weight of each hamster was weighed, followed by performing rotarod test, slope endurance test, and counting of falling down frequency. The types of compounds applied to each group and the results are in Table 25.

[4] = system: hamsters with cerebellar ataxia; assay: Slant tolerance test in hamsters with cerebellar ataxia; format: in vivo, hamster; settings: hamster with cerebellar ataxia; agent of Example 1, 0.5 ml/hamster intraperitoneally once a day for 56 days
Description: as §1
Hamsters were placed on a slope-angle-variable-board while keeping their heads upward, followed by determining the angle for allowing the hamsters to keep staying thereupon for five seconds for use as an endurable-slant-slope-angle test (see Rivlin et al., “J. Neurosurg.”, Vol. 47, pp. 577-581, […]). The initial slope angle was set to 25 degrees and increased by 5 degrees step by step. When a tested hamster in a static condition fell down within five seconds, the slope angle was decreased by one degree step by step, followed by judging the angle that allows the hamster to keep static staying for five seconds, measuring the tolerable slant-slope-angle, and averaging the data for five heads in each group.
as §2

[5] = compound concentration 25 ng/ml
[6] = compound concentration 50 ng/ml
[7] = compound concentration 100 ng/ml
[8] = compound concentration 200 ng/ml

SMILES	Action of enhancing cell growth (%) [1, 5] [%]	Action of enhancing cell growth (%) [1, 6] [%]	Action of enhancing cell growth (%) [1, 7] [%]	Action of enhancing cell growth (%) [1, 8] [%]	Degeneration/defluxion of hippocampal pyramidal cell [2]	Falling down frequency (count/min) [3] [count/min]	Endurable-slant-slope-angle (°) [4] [°]	Action of enhancing cell growth (%) ([1]; 100 μl/well of 100 ng/ml test solution, 3 days, control = 100)
CCCCN1C=C/C(=C/C=C(/C=C/c2cc[n+](CCCC)c3ccccc23)c2cc[n+](CCCC)c3ccccc23)c2ccccc21 [NK-26]	275 ± 19	357 ± 35	210 ± 12	210 ± 12	1.1	1.0 ± 0.7	53.5 ± 1.3	
CCCCCCCCN1C=CC(=CC=C(C=Cc2cc[n+](CCCCCCCC)c3ccccc23)c2cc[n+](CCCCCCCC)c3ccccc23)c2ccccc21.[I-].[I-] [NK-147]	122 ± 14	136 ± 30	163 ± 60	404 ± 76	1.5	1.5 ± 0.8	49.3 ± 2.1	
CCCCCCCCCN1C(C)=CS\C1=C/C=C(\C=C\c1scc(C)[n+]1CCCCCCCCC)c1scc(C)[n+]1CCCCCCCCC.[I-].[I-] [NK-393]					1.1	0.9 ± 0.8	53.1 ± 1.5	550
